Data reported in publication PMC8159961, “Exploring protein hotspots by optimized fragment pharmacophores” (Nature Communications, 2021).
Like-named read-outs stand apart in the source and are kept apart here.

Experiments:
human 5-HT1A receptor = biological target: T1, human 5-HT1A receptor (Homo sapiens, UniProt P08908); experiment: GPCR radioligand binding assay, [3H]-8-OH-DPAT displacement, HEK293 membranes
T1 construct: expressed in transfected cells
T1 sequence (P08908 1-422): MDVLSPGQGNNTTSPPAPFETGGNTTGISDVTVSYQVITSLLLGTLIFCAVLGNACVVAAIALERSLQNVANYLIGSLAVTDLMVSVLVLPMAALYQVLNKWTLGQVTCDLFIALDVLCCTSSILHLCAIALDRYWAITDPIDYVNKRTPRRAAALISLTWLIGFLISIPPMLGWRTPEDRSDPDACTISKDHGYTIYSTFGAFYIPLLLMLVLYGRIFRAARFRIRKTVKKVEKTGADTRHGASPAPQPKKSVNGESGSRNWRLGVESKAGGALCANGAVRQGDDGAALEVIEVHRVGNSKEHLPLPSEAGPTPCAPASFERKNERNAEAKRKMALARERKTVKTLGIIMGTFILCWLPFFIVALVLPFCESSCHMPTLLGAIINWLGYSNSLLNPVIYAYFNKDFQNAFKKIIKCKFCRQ

human 5-HT7b receptor = biological target: T2, human 5-HT7b receptor (Homo sapiens, UniProt P34969); experiment: GPCR radioligand binding assay, [3H]-5-CT displacement, HEK293 membranes
T2 construct: expressed in transfected cells
T2 sequence (P34969 1-432): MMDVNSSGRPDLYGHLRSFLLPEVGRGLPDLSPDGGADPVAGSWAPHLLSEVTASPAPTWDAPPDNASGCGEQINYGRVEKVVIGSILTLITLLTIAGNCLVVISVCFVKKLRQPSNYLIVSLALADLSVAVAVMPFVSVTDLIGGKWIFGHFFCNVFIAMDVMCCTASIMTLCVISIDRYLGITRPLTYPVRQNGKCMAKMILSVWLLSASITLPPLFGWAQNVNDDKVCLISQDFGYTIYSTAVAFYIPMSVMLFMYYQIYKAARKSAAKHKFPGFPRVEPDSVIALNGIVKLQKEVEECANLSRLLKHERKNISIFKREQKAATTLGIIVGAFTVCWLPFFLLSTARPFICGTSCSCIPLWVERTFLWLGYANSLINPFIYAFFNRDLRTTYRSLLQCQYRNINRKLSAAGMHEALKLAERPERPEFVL

human 5-HT6 receptor = biological target: T3, human 5-HT6 receptor (Homo sapiens, UniProt P50406); experiment: GPCR radioligand binding assay, [3H]-LSD displacement, HEK293 membranes
T3 construct: expressed in transfected cells
T3 sequence (P50406 whole entry): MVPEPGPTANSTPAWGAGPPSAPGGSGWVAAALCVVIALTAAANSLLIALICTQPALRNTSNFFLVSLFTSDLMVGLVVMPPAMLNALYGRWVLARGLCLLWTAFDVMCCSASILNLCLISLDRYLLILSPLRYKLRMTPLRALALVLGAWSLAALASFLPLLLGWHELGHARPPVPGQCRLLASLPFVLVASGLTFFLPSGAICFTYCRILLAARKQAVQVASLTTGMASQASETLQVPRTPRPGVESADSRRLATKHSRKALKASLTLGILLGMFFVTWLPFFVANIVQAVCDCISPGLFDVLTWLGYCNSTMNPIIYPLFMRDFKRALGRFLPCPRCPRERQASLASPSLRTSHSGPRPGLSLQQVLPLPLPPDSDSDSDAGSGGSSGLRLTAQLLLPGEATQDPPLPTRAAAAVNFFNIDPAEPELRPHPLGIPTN

human thrombin = biological target: T4, human thrombin (Homo sapiens, UniProt P00734); experiment: Protease inhibitory assay, chromogenic substrate S-2238; assay type: biochemical; settings: plate layout, label = plate position; Cheng-Prusoff, Km 2.6 µM; read-out: Thrombin Ki
T4 construct: human thrombin; purchased Sigma-Aldrich

bovine factor Xa = biological target: T5, bovine factor Xa (Bos taurus, UniProt P00743); experiment: Protease inhibitory assay, chromogenic substrate S-2222; assay type: biochemical
T5 construct: bovine factor Xa, Chromogenix, 2 nkat/mL; purchased Chromogenix
T5 sequence (P00743 234-492 limits assumed): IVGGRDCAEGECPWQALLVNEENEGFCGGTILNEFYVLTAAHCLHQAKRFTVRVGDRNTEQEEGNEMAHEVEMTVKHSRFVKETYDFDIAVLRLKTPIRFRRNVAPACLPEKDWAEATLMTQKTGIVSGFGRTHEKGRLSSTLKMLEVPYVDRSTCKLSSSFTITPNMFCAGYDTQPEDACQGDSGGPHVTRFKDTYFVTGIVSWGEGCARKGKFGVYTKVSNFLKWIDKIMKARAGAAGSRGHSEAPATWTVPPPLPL
T5 sequence (P00743 41-180 partner limits assumed): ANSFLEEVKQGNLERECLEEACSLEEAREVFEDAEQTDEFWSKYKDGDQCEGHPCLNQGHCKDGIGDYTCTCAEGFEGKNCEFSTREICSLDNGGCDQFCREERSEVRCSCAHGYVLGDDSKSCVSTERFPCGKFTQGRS

[1] = 10 µM, read-out: 5-HT1A % Inhibition by plate position
[2] = 5-HT1A, average of exp_1 and exp_2, read-out: %inh 5-HT1A average
[3] = 5-HT1A, average, values below 0 and above 100% were set as 0 and 100, read-out: %inh 5-HT1A corrected*
[4] = 5-HT1A, replicate exp_1, read-out: %inh 5-HT1A exp_1
[5] = 5-HT1A, replicate exp_2, read-out: %inh 5-HT1A exp_2
[6] = 10 µM, read-out: 5-HT7 % Inhibition by plate position
[7] = 5-HT7, average of exp_1 and exp_2, read-out: %inh 5-HT7 average
[8] = 5-HT7, average, values below 0 and above 100% were set as 0 and 100, read-out: %inh 5-HT7 corrected*
[9] = 5-HT7, replicate exp_1, read-out: %inh 5-HT7 exp_1
[10] = 5-HT7, replicate exp_2, read-out: %inh 5-HT7 exp_2
[11] = 10 µM, read-out: 5-HT6 % Inhibition by plate position
[12] = 5-HT6, average of exp_1 and exp_2, read-out: %inh 5-HT6 average
[13] = 5-HT6, average, values below 0 and above 100% were set as 0 and 100, read-out: %inh 5-HT6 corrected*
[14] = 5-HT6, replicate exp_1, read-out: %inh 5-HT6 exp_1
[15] = 5-HT6, replicate exp_2, read-out: %inh 5-HT6 exp_2
[16] = plate layout, label = plate position, Cheng-Prusoff, Km 164 µM, read-out: Factor Xa Ki
[17] = 5-HT1A, average of exp_1 and exp_2
[18] = 5-HT1A, average, values below 0 and above 100% were set as 0 and 100
[19] = 5-HT6, average of exp_1 and exp_2
[20] = 5-HT6, average, values below 0 and above 100% were set as 0 and 100
[21] = 5-HT7, average of exp_1 and exp_2

Structure (SMILES)	inhibition at 10 µM (human 5-HT1A receptor; [1]) [%]	inhibition at 10 µM (human 5-HT1A receptor; [2]) [%]	inhibition at 10 µM (human 5-HT1A receptor; [3]) [%]	inhibition at 10 µM (human 5-HT1A receptor; [4]) [%]	inhibition at 10 µM (human 5-HT1A receptor; [5]) [%]	inhibition at 10 µM (human 5-HT7b receptor; [6]) [%]	inhibition at 10 µM (human 5-HT7b receptor; [7]) [%]	inhibition at 10 µM (human 5-HT7b receptor; [8]) [%]	inhibition at 10 µM (human 5-HT7b receptor; [9]) [%]	inhibition at 10 µM (human 5-HT7b receptor; [10]) [%]	inhibition at 10 µM (human 5-HT6 receptor; [11]) [%]	inhibition at 10 µM (human 5-HT6 receptor; [12]) [%]	inhibition at 10 µM (human 5-HT6 receptor; [13]) [%]	inhibition at 10 µM (human 5-HT6 receptor; [14]) [%]	inhibition at 10 µM (human 5-HT6 receptor; [15]) [%]	%inh 5-HT1A average (human 5-HT1A receptor; [17]) [%]	%inh 5-HT1A exp_1 (human 5-HT1A receptor; 5-HT1A, replicate exp_1) [%]	%inh 5-HT1A exp_2 (human 5-HT1A receptor; 5-HT1A, replicate exp_2) [%]	5-HT7 % Inhibition by plate position (human 5-HT7b receptor; 10 µM) [%]	%inh 5-HT7 exp_1 (human 5-HT7b receptor; 5-HT7, replicate exp_1) [%]	also measured
O=C(O)C1CCN(c2ncccn2)CC1 [E9]	3	3	3	11	-4.35	0	-8.55	0	3.77	-21	29	29	29	32	26						Ki (human thrombin): 76 µM
c1ccc(Nc2nncs2)cc1 [D8]	0	-2.41	0	-10	5.56	0	-12	0	-3.33	-21	1.55	1.55	1.55	9	-6						Ki (bovine factor Xa; [16]): 733 µM
O=C(c1ccccc1F)N1CCNCC1 [E12]	15	15	15	13	17	0	-6	0	-4.53	-8	17	17	17	12	22						Ki (bovine factor Xa): 510 µM
Oc1ccccc1N1CCCCC1 [A12]	0	-10	0	3.37	-23	0	-0.0781	0	-4.73	4.58	55	55	55	69	42						Ki (bovine factor Xa; [16]): 611 µM
Nc1nnc(-c2cccs2)[nH]1 [D3]	0.863	0.863	0.863	1.73	0	0	-1.67	0	1.55	-5	52	52	52	52	53						Ki (human thrombin): 181 µM
Cn1c(N)nc2ccccc21 [A6]	0	-7	0	-18	3	0	-10	0	-3	-18	25	25	25	22	29						Ki (bovine factor Xa; [16]): 277 µM
COc1ccccc1CC1CCNCC1 [B12]																					Ki (bovine factor Xa): 401 µM; inhibition at 10 µM (human 5-HT1A receptor; read-out: 5-HT1A % Inhibition by plate position): 50%; inhibition at 10 µM (human 5-HT1A receptor; read-out: %inh 5-HT1A average): 50%; inhibition at 10 µM (human 5-HT1A receptor; read-out: %inh 5-HT1A corrected*): 50%; inhibition at 10 µM (human 5-HT1A receptor; read-out: %inh 5-HT1A exp_1): 52%; inhibition at 10 µM (human 5-HT1A receptor; read-out: %inh 5-HT1A exp_2): 48%; inhibition at 10 µM (human 5-HT7b receptor; read-out: 5-HT7 % Inhibition by plate position): 54%; inhibition at 10 µM (human 5-HT7b receptor; read-out: %inh 5-HT7 average): 54%; inhibition at 10 µM (human 5-HT7b receptor; read-out: %inh 5-HT7 corrected*): 54%; inhibition at 10 µM (human 5-HT7b receptor; read-out: %inh 5-HT7 exp_1): 45%; inhibition at 10 µM (human 5-HT7b receptor; read-out: %inh 5-HT7 exp_2): 63%; inhibition at 10 µM (human 5-HT6 receptor; read-out: 5-HT6 % Inhibition by plate position): 76%; inhibition at 10 µM (human 5-HT6 receptor; read-out: %inh 5-HT6 average): 76%; inhibition at 10 µM (human 5-HT6 receptor; read-out: %inh 5-HT6 corrected*): 76%; inhibition at 10 µM (human 5-HT6 receptor; read-out: %inh 5-HT6 exp_1): 84%; inhibition at 10 µM (human 5-HT6 receptor; read-out: %inh 5-HT6 exp_2): 68%
CC(CN)N1CCc2sccc2C1 (centres unmarked) [F9]																33	30	36	8	13	%inh 5-HT1A corrected* (human 5-HT1A receptor; [18]): 33%; %inh 5-HT7 exp_2 (human 5-HT7b receptor; 5-HT7, replicate exp_2): 3.54%; 5-HT6 % Inhibition by plate position (human 5-HT6 receptor; 10 µM): 15%; %inh 5-HT6 average (human 5-HT6 receptor; [19]): 15%; %inh 5-HT6 corrected* (human 5-HT6 receptor; [20]): 15%; %inh 5-HT6 exp_1 (human 5-HT6 receptor; 5-HT6, replicate exp_1): 14%; %inh 5-HT6 exp_2 (human 5-HT6 receptor; 5-HT6, replicate exp_2): 17%
c1ccc2sc(N3CCNCC3)nc2c1 [G5]																83	78	88	28	32	%inh 5-HT1A corrected* (human 5-HT1A receptor; [18]): 83%; %inh 5-HT7 exp_2 (human 5-HT7b receptor; 5-HT7, replicate exp_2): 25%; 5-HT6 % Inhibition by plate position (human 5-HT6 receptor; 10 µM): 42%; %inh 5-HT6 average (human 5-HT6 receptor; [19]): 42%; %inh 5-HT6 corrected* (human 5-HT6 receptor; [20]): 42%; %inh 5-HT6 exp_1 (human 5-HT6 receptor; 5-HT6, replicate exp_1): 49%; %inh 5-HT6 exp_2 (human 5-HT6 receptor; 5-HT6, replicate exp_2): 35%
CN(C)c1cc(CN)ccn1 [G3]																11	13	10	0	-1.11	%inh 5-HT1A corrected* (human 5-HT1A receptor; [18]): 11%; %inh 5-HT7 average (human 5-HT7b receptor; [21]): -18%; %inh 5-HT7 exp_2 (human 5-HT7b receptor; 5-HT7, replicate exp_2): -35%; 5-HT6 % Inhibition by plate position (human 5-HT6 receptor; 10 µM): 16%; %inh 5-HT6 average (human 5-HT6 receptor; [19]): 16%; %inh 5-HT6 corrected* (human 5-HT6 receptor; [20]): 16%; %inh 5-HT6 exp_1 (human 5-HT6 receptor; 5-HT6, replicate exp_1): 16%; %inh 5-HT6 exp_2 (human 5-HT6 receptor; 5-HT6, replicate exp_2): 16%
O=C1NC(=O)/C(=C\c2cccs2)N1 [H12]	3.44	3.44	3.44	7	-0.195	3.77	3.77	3.77	6	1.68	32	32	32	31	32						Ki (bovine factor Xa): 466 µM
O=C1NC2(CCCC2)Nc2ccccc21 [C9]																-0.0168	4.43	-4.46	5	-2.47	5-HT1A % Inhibition by plate position (human 5-HT1A receptor; 10 µM): 0%; %inh 5-HT7 exp_2 (human 5-HT7b receptor; 5-HT7, replicate exp_2): 13%; 5-HT6 % Inhibition by plate position (human 5-HT6 receptor; 10 µM): 44%; %inh 5-HT6 average (human 5-HT6 receptor; [19]): 44%; %inh 5-HT6 corrected* (human 5-HT6 receptor; [20]): 44%; %inh 5-HT6 exp_1 (human 5-HT6 receptor; 5-HT6, replicate exp_1): 46%; %inh 5-HT6 exp_2 (human 5-HT6 receptor; 5-HT6, replicate exp_2): 41%
O=C(O)c1cnc(-c2ccccc2)s1 [F3]	2.52	2.52	2.52	-2.47	7.5	0	-18	0	-6	-31	41	41	41	48	34						Ki (human thrombin): 271 µM
N#CCCN1CCc2ccccc21 [F4]																-7	-1.29	-12	3	1.81	5-HT1A % Inhibition by plate position (human 5-HT1A receptor; 10 µM): 0%; %inh 5-HT7 exp_2 (human 5-HT7b receptor; 5-HT7, replicate exp_2): 4.42%; 5-HT6 % Inhibition by plate position (human 5-HT6 receptor; 10 µM): 23%; %inh 5-HT6 average (human 5-HT6 receptor; [19]): 23%; %inh 5-HT6 corrected* (human 5-HT6 receptor; [20]): 23%; %inh 5-HT6 exp_1 (human 5-HT6 receptor; 5-HT6, replicate exp_1): 26%; %inh 5-HT6 exp_2 (human 5-HT6 receptor; 5-HT6, replicate exp_2): 20%
c1cnc2c(c1)NCCC2 [E7]																12	15	9	0	6	%inh 5-HT1A corrected* (human 5-HT1A receptor; [18]): 12%; %inh 5-HT7 average (human 5-HT7b receptor; [21]): -3.73%; %inh 5-HT7 exp_2 (human 5-HT7b receptor; 5-HT7, replicate exp_2): -14%; 5-HT6 % Inhibition by plate position (human 5-HT6 receptor; 10 µM): 28%; %inh 5-HT6 average (human 5-HT6 receptor; [19]): 28%; %inh 5-HT6 corrected* (human 5-HT6 receptor; [20]): 28%; %inh 5-HT6 exp_1 (human 5-HT6 receptor; 5-HT6, replicate exp_1): 28%; %inh 5-HT6 exp_2 (human 5-HT6 receptor; 5-HT6, replicate exp_2): 29%
